Experimental data: the supplement of paper PMC10627819

Columns and labels:
S. aureus DSM 20231 [1] = test: fitness (endpoint OD595 vs no drug) (fraction); higher = more growth
In short: (§1)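 Fitness is computed from the optical density at which cultures reach stationary phase, divided by the robust mean of no-drug control wells. Any value above 1 is set to 1. Cultures started at OD595 0.01 in 384-well plates with TSB, LB Lennox or CY at 37 °C, and OD595 was read every 30 min for 14 h against a first-reading background.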

S. aureus Newman [2] = test: Bliss interaction score (quartile over a dose matrix) (fitness difference); higher = more antagonism (negative = synergy)
In short: (§2)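 Quartiles of the Bliss score were taken over technical, biological and donor/recipient replicates. That score is observed fitness minus the product of the single-drug fitness values, which were inferred from combination data. Fitness itself is OD595 at entry into stationary phase divided by the plate's robust no-drug mean, with a cap at 1.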

S. pneumoniae D39V [3] = test: as above
In short: as §2

B. subtilis 168 [4] = test: as above
In short: as §2

S. aureus DSM 20231 [5] = test: as above
In short: as §2

S. pneumoniae D39V [6] = test: fitness (endpoint OD595 vs no drug) (fraction); higher = more growth
In short: as §1

S. aureus Newman [7] = test: as above
In short: as §1

B. subtilis 168 [8] = test: as above
In short: as §1
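For Bliss interaction score (quartile over a dose matrix) in this document: first quartile when negative (synergy) and third quartile when positive (antagonism).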

O=C(N[C@H](CO)[C@H](O)c1ccc([N+](=O)[O-])cc1)C(Cl)Cl [Chloramphenicol] + CC(=O)NC[C@H]1CN(c2ccc(N3CCOCC3)c(F)c2)C(=O)O1 [Linezolid]
fitness, S. aureus DSM 20231 [1]
Conditions	first compound 0.75 µg/mL	first compound 1.5 µg/mL	first compound 3 µg/mL
partner 0.125 µg/mL	0.609	0.321	0.11
partner 0.25 µg/mL	0.353	0.227	0.0855
partner 0.5 µg/mL	0.128	0.119	0.0711

S. aureus DSM 20231 [1], partner 1 µg/mL, one replicate
Conditions	fitness
first compound 0.75 µg/mL	0.0506
first compound 1.5 µg/mL	0.0474
first compound 3 µg/mL	0.0396

Conditions	Bliss interaction score
B. subtilis 168 [4]	-0.141
S. aureus DSM 20231 [5]	-0.152
S. aureus Newman [2]	-0.112
S. pneumoniae D39V [3]	0.0462

O=C(N[C@H](CO)[C@H](O)c1ccc([N+](=O)[O-])cc1)C(Cl)Cl [Chloramphenicol] + CCC[C@@H]1C[C@@H](C(=O)N[C@@H]([C@H]2O[C@H](SC)[C@H](O)[C@@H](O)[C@H]2O)[C@@H](C)O)N(C)C1 [Lincomycin]
fitness, S. aureus DSM 20231 [1]
Conditions	first compound 0.75 µg/mL	first compound 1.5 µg/mL	first compound 3 µg/mL
partner 0.1 µg/mL	0.729	0.57	–
partner 0.2 µg/mL	0.563	0.378	–
partner 0.4 µg/mL	0.215	0.167	0.0709

Conditions	Bliss interaction score
B. subtilis 168 [4]	0.11
S. aureus DSM 20231 [5]	0.0462
S. aureus Newman [2]	-0.167
S. pneumoniae D39V [3]	0.105

CCC[C@@H]1C[C@@H](C(=O)N[C@@H]([C@H]2O[C@H](SC)[C@H](O)[C@@H](O)[C@H]2O)[C@@H](C)O)N(C)C1 [Lincomycin] + CCCCCCCCCC(=O)N[C@@H]1[C@H]([C@@H]([C@H](O[C@H]1OC2=C3C=C4C=C2OC5=C(C=C(C=C5)[C@H]([C@H]6C(=O)N[C@@H](C7=C(C(=CC(=C7)O)OC8[C@H]([C@H]([C@@H]([C@H](O8)CO)O)O)O)C9=C(C=CC(=C9)[C@H](C(=O)N6)NC(=O)[C@@H]4NC(=O)[C@@H]1C2=CC(=CC(=C2)OC2=C(C=CC(=C2)[C@H](C(=O)N[C@H](CC2=CC(=C(O3)C=C2)Cl)C(=O)N1)N)O)O)O)C(=O)O)O[C@H]1[C@@H]([C@H]([C@@H]([C@H](O1)CO)O)O)NC(=O)C)Cl)CO)O)O [Teicoplanin]
fitness, S. aureus DSM 20231 [1], main component drawn
Conditions	partner 0.1562 µg/mL	partner 0.3125 µg/mL	partner 0.625 µg/mL
first compound 0.1 µg/mL	0.913	0.979	≥ 1
first compound 0.2 µg/mL	0.825	0.821	0.941

main component drawn
Conditions	Bliss interaction score
B. subtilis 168 [4]	-0.111
S. aureus DSM 20231 [5]	0.118
S. aureus Newman [2]	0.179
S. pneumoniae D39V [3]	-0.0397

CCC[C@@H]1C[C@@H](C(=O)N[C@@H]([C@H]2O[C@H](SC)[C@H](O)[C@@H](O)[C@H]2O)[C@@H](C)O)N(C)C1 [Lincomycin] + CN[C@H](CC(C)C)C(=O)N[C@H]1C(=O)N[C@@H](CC(N)=O)C(=O)N[C@H]2C(=O)N[C@H]3C(=O)N[C@H](C(=O)N[C@H](C(=O)O)c4cc(O)cc(O)c4-c4cc3ccc4O)[C@H](O)c3ccc(c(Cl)c3)Oc3cc2cc(c3O[C@@H]2O[C@H](CO)[C@@H](O)[C@H](O)[C@H]2O[C@H]2C[C@](C)(N)[C@H](O)[C@H](C)O2)Oc2ccc(cc2Cl)[C@H]1O [Vancomycin]
Conditions	fitness
S. aureus DSM 20231 [1], first compound 0.1 µg/mL, partner 0.1875 µg/mL	0.805
S. aureus DSM 20231 [1], first compound 0.1 µg/mL, partner 0.375 µg/mL	0.873
S. aureus DSM 20231 [1], first compound 0.1 µg/mL, partner 0.75 µg/mL	0.922
S. aureus DSM 20231 [1], first compound 0.2 µg/mL, partner 0.1875 µg/mL	0.679
S. aureus DSM 20231 [1], first compound 0.2 µg/mL, partner 0.375 µg/mL	0.701
S. aureus DSM 20231 [1], first compound 0.2 µg/mL, partner 0.75 µg/mL	0.745
S. aureus DSM 20231 [1], first compound 0.4 µg/mL, partner 0.1875 µg/mL	0.346
S. aureus DSM 20231 [1], first compound 0.4 µg/mL, partner 0.375 µg/mL	0.336
S. aureus DSM 20231 [1], first compound 0.4 µg/mL, partner 0.75 µg/mL	0.371
S. pneumoniae D39V [6], first compound 0.2 µg/mL, partner 0.03125 µg/mL	0.706
S. pneumoniae D39V [6], first compound 0.2 µg/mL, partner 0.0625 µg/mL	0.695
S. pneumoniae D39V [6], first compound 0.2 µg/mL, partner 0.125 µg/mL	0.489
S. pneumoniae D39V [6], first compound 0.215 µg/mL, partner 0.125 µg/mL	0.845
S. pneumoniae D39V [6], first compound 0.215 µg/mL, partner 0.25 µg/mL	0.782
S. pneumoniae D39V [6], first compound 0.4 µg/mL, partner 0.03125 µg/mL	0.61
S. pneumoniae D39V [6], first compound 0.4 µg/mL, partner 0.0625 µg/mL	0.604
S. pneumoniae D39V [6], first compound 0.43 µg/mL, partner 0.125 µg/mL	0.792
S. pneumoniae D39V [6], first compound 0.43 µg/mL, partner 0.25 µg/mL	0.699
S. pneumoniae D39V [6], first compound 0.43 µg/mL, partner 0.5 µg/mL	0.248
S. pneumoniae D39V [6], first compound 0.8 µg/mL, partner 0.03125 µg/mL	0.279
S. pneumoniae D39V [6], first compound 0.8 µg/mL, partner 0.125 µg/mL	0.191
S. pneumoniae D39V [6], first compound 0.86 µg/mL, partner 0.125 µg/mL	0.356
S. pneumoniae D39V [6], first compound 0.86 µg/mL, partner 0.25 µg/mL	0.311
S. pneumoniae D39V [6], first compound 0.86 µg/mL, partner 0.5 µg/mL	0.0793

Conditions	Bliss interaction score
B. subtilis 168 [4]	0.0223
S. aureus DSM 20231 [5]	-0.0567
S. aureus Newman [2]	0.0733
S. pneumoniae D39V [3]	0.117

COc1c(N2C[C@@H]3CCCN[C@@H]3C2)c(F)cc2c(=O)c(C(=O)O)cn(C3CC3)c12 [Moxifloxacin] + CN[C@@H]1[C@H](O[C@H]2[C@H](O[C@H]3[C@H](O)[C@@H](O)[C@H](N=C(N)N)[C@@H](O)[C@@H]3N=C(N)N)O[C@@H](C)[C@]2(O)C=O)O[C@@H](CO)[C@H](O)[C@H]1O [Streptomycin]
fitness
Conditions	partner 1 µg/mL	partner 2 µg/mL	partner 4 µg/mL	partner 8 µg/mL
B. subtilis 168 [8], first compound 0.0312 µg/mL	–	0.0439	0.0414	0.0382
B. subtilis 168 [8], first compound 0.0625 µg/mL	–	0.0428	0.0341	0.0226
B. subtilis 168 [8], first compound 0.125 µg/mL	–	0.041	0.0379	0.0381
B. subtilis 168 [8], first compound 2 µg/mL	–	0.0315	0.0296	0.0146
B. subtilis 168 [8], first compound 4 µg/mL	–	0.0231	0.0178	0.0188
B. subtilis 168 [8], first compound 8 µg/mL	–	0.013	0.0133	0.0206
S. aureus Newman [7], first compound 0.0075 µg/mL	0.834	0.733	–	–
S. aureus Newman [7], first compound 0.015 µg/mL	–	0.606	–	–
S. aureus Newman [7], first compound 0.03 µg/mL	–	0.201	0.0711	–
S. pneumoniae D39V [6], first compound 0.0037 µg/mL	–	–	0.891	0.785
S. pneumoniae D39V [6], first compound 0.005 µg/mL	–	0.922	0.944	0.892
S. pneumoniae D39V [6], first compound 0.0075 µg/mL	–	–	0.904	0.837
S. pneumoniae D39V [6], first compound 0.01 µg/mL	–	0.94	0.958	0.925
S. pneumoniae D39V [6], first compound 0.015 µg/mL	–	–	0.882	0.82
S. pneumoniae D39V [6], first compound 0.02 µg/mL	–	0.881	0.9	0.861

fitness, S. pneumoniae D39V [6], one replicate
Conditions	first compound 0.0037 µg/mL	first compound 0.0075 µg/mL	first compound 0.015 µg/mL
partner 2 µg/mL	0.903	0.908	0.919
partner 16 µg/mL	0.699	0.743	0.685

Conditions	Bliss interaction score
B. subtilis 168 [4]	0.0188
S. aureus DSM 20231 [5]	0.0517
S. aureus Newman [2]	-0.031
S. pneumoniae D39V [3]	0.0604

CCCCCCCCCC(=O)N[C@H]1[C@H](Oc2c3cc4cc2Oc2ccc(cc2Cl)[C@@H](O[C@@H]2O[C@H](CO)[C@@H](O)[C@H](O)[C@H]2NC(C)=O)[C@@H]2NC(=O)[C@H](NC(=O)[C@@H]4NC(=O)[C@H]4NC(=O)[C@@H](Cc5ccc(c(Cl)c5)O3)NC(=O)[C@H](N)c3ccc(O)c(c3)Oc3cc(O)cc4c3)c3ccc(O)c(c3)-c3c(O[C@H]4O[C@H](CO)[C@@H](O)[C@H](O)[C@@H]4O)cc(O)cc3[C@@H](C(=O)O)NC2=O)O[C@H](CO)[C@@H](O)[C@@H]1O [Teicoplanin] + COc1cc(Cc2cnc(N)nc2N)cc(OC)c1OC [Trimethoprim]
fitness, S. aureus DSM 20231 [1], main component drawn
Conditions	partner 0.125 µg/mL	partner 0.25 µg/mL	partner 0.5 µg/mL	partner 1 µg/mL
first compound 0.1562 µg/mL	0.733	0.591	0.0778	0.0229
first compound 0.3125 µg/mL	0.798	0.61	0.0585	0.0126
first compound 0.625 µg/mL	0.708	–	0.0794	0.0061

main component drawn
Conditions	Bliss interaction score
B. subtilis 168 [4]	-0.0836
S. aureus DSM 20231 [5]	-0.167
S. aureus Newman [2]	-0.249
S. pneumoniae D39V [3]	-0.0668

COc1cc(Cc2cnc(N)nc2N)cc(OC)c1OC [Trimethoprim] + CN[C@H](CC(C)C)C(=O)N[C@H]1C(=O)N[C@@H](CC(N)=O)C(=O)N[C@H]2C(=O)N[C@H]3C(=O)N[C@H](C(=O)N[C@H](C(=O)O)c4cc(O)cc(O)c4-c4cc3ccc4O)[C@H](O)c3ccc(c(Cl)c3)Oc3cc2cc(c3O[C@@H]2O[C@H](CO)[C@@H](O)[C@H](O)[C@H]2O[C@H]2C[C@](C)(N)[C@H](O)[C@H](C)O2)Oc2ccc(cc2Cl)[C@H]1O [Vancomycin]
S. aureus DSM 20231 [1], first compound 0.125 µg/mL, one replicate
Conditions	fitness
partner 0.1875 µg/mL	0.667
partner 0.375 µg/mL	0.898
partner 0.75 µg/mL	0.984

fitness, S. aureus DSM 20231 [1]
Conditions	first compound 0.25 µg/mL	first compound 0.5 µg/mL	first compound 1 µg/mL
partner 0.1875 µg/mL	0.604	0.0644	0.0331
partner 0.375 µg/mL	0.613	–	0.0412
partner 0.75 µg/mL	0.62	–	0.0581

Conditions	Bliss interaction score
B. subtilis 168 [4]	0.0634
S. aureus DSM 20231 [5]	-0.0623
S. aureus Newman [2]	-0.0768
S. pneumoniae D39V [3]	0.119
